The test system of data set [1] is Candida albicans. Nature of the data set: Antifungal MIC, Candida albicans. The format is cell-based. As to conditions: Candida albicans. The procedure:
(§1) A 10 mL tube containing 4 mL of Sabourauds dextrose broth was inoculated with 1 colony of Candida albicans picked from a plate of pure culture. The strain was ordered from the American Type Culture Collection (ATCC). The organism was grown for 4 hours at 30° C. while shaking at 150 RPM. While the organism was growing, samples of hydroxy-itraconazoles were solubilized to a concentration of 10 mg/mL in DMSO. Each sample was then diluted 1:10 to make 1 mg/mL samples or 1000 μg/mL. These samples were then diluted by serial 2-fold dilutions to produce samples now containing 1000, 500, 250, 125, 62.5, 31.25, 15.6 μg/mL. […] At 4 hours of growth time the Candida albicans was diluted to a 0.5 McFarland standard representing about 10^5 -10^6 cells/mL and 1 μL of this inoculum placed into each test well of the microtiter dish. The dish was then covered and incubated at 30° C. for 16 hours.

Data set [2] relates to Candida albicans. Nature of the data set: Kirby-Bauer Testing, Candida albicans. The format is cell-based. As to conditions: 10 μl of 10 mg/mL per disk, 30° C., 16 hours. As to the method: The hydroxyitraconazole isomers were tested for biological activity according three different assays. Table 2 summarizes the results of Kirby-Bauer Testing against three actively growing cultures: Candida albicans, Cryptococcus neoformens and Saccromyces cerevisiae. […] A 10 mL tube containing 4 mL of Sabourauds dextrose broth was inoculated with 1 colony of Candida albicans picked from a plate of pure culture. The strain was ordered from the American Type Culture Collection (ATCC). The organism was grown for 4 hours at 30° C. while shaking at 150 RPM. While the organism was growing, samples of hydroxy-itraconazoles were solubilized to a concentration of 10 mg/mL in DMSO. Each sample was then diluted 1:10 to make 1 mg/mL samples or 1000 μg/mL. […] A 96-well microtiter dish was set up with 98 μL of liquid growth media in each test well, along with 1 μL of hydroxy-itraconazole solution. At 4 hours of growth time the Candida albicans was diluted to a 0.5 McFarland standard representing about 10^5 -10^6 cells/mL and 1 μL of this inoculum placed into each test well of the microtiter dish. The dish was then covered and incubated at 30° C. for 16 hours. Actively growing cultures of Candida albicans, Cryptococcus neoformens and Saccharomyces cerevisiae were prepared as described above. […] Zones of inhibition were then measured in mm.

Data set [3] can be described thus: Water solubility of hydroxyitraconazole phosphate isomers (NMG salts). As to conditions: water; Table 8. Format: physicochemical. An excerpt:
The water solubility of the NMG salts of the phosphate esters of isomers 1, 2 and 3+4 were investigated and compared to the corresponding hydroxyitraconazole isomers 1, 2 and 3+4. The phosphate esters were as much as 10^7 times more water soluble than the corresponding hydroxyitraconazole isomer.

In another data set the test system is Sacchromyces cerevisae. Nature of the data set: Kirby-Bauer Testing, Saccharomyces cerevisiae. The format is cell-based. As to conditions: Saccharomyces cerevisiae, 10 μl of 10 mg/mL per disk, 30° C., 16 hours. The procedure:
The hydroxyitraconazole isomers were tested for biological activity according three different assays.
Actively growing cultures of Candida albicans, Cryptococcus neoformens and Saccharomyces cerevisiae were prepared as described above. The cultures were diluted to a 0.5 McFarland standard and swabbed onto a 150 mm Sabouraud Dextrose agar plates. Paper disks (7 mm) were placed onto the agar plates using a disk dispenser. […] The plates were then incubated at 30° C. for 16 hours. Zones of inhibition were then measured in mm.

The next data set deals with A. fumigatis. Briefly: Antifungal MIC, A. fumigatis. As to conditions: A. fumigatis (Table 3). The format is cell-based. As to the method: [The source words this procedure for another organism and reports this organism under the same test.] as §1
Data set [4] in a line: Water solubility of hydroxyitraconazole isomers and itraconazole. Format: physicochemical. The procedure: The isomers of cis hydroxyitraconazole were tested for water solubility against a […] standard solution of hydroxyitraconazole. […] The values for 3+4 and 11+12 are barely above the LOD, giving accuracies of ±10%. In every case, solubilities were in the 10^1 to 10^2 ng/ml range.

The test system of a further data set is Cr. neoformens. Nature of the data set: Antifungal MIC, Cr. neoformens. Format: cell-based, Cryptococcus neoformens. As to conditions: Cryptococcus. As to the method: [The source words this procedure for another organism and reports this organism under the same test.] as §1
Data set [5] deals with T1, cytochrome P450 3A4 (Homo sapiens, UniProt P08684).
T1 sequence (P08684 whole entry): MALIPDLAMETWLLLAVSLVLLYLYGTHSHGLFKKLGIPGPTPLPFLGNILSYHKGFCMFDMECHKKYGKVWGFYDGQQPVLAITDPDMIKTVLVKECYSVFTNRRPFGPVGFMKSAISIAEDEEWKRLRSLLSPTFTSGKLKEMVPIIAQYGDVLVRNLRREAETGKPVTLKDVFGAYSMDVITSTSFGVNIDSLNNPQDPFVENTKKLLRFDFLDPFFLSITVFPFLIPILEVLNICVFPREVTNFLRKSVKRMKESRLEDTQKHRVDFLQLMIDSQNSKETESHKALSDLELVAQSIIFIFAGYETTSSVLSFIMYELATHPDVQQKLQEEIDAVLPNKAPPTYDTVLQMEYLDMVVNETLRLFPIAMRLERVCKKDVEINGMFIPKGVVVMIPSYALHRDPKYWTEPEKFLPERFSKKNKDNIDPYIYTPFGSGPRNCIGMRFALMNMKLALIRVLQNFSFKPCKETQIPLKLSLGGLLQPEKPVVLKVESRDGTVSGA
Experimental: (§3) The IC50 values were determined by the appearance of 6β-hydroxytestosterone after incubation with testosterone. […] Of greater clinical significance is the ratio of the IC50 for 3A4 to the MIC for C. albicans 44203.
Another data set deals with Aspergillis. Briefly: Kirby-Bauer Testing, Aspergillis. As to conditions: 16 h, 10 μl of 10 mg/mL per disk. The format is cell-based.
For another data set, the system named is Cryptococcus neoformens. Nature of the data set: Kirby-Bauer Testing, Cryptococcus neoformens. Format: cell-based. As to conditions: 10 μl of 10 mg/mL per disk, 30° C., 16 hours. The procedure: The hydroxyitraconazole isomers were tested for biological activity according three different assays. Table 2 summarizes the results of Kirby-Bauer Testing against three actively growing cultures: Candida albicans, Cryptococcus neoformens and Saccromyces cerevisiae.
Actively growing cultures of Candida albicans, Cryptococcus neoformens and Saccharomyces cerevisiae were prepared as described above. The cultures were diluted to a 0.5 McFarland standard and swabbed onto a 150 mm Sabouraud Dextrose agar plates. Paper disks (7 mm) were placed onto the agar plates using a disk dispenser. Next 10 μl of 10 mg/mL solutions of each sample hydroxy-itraconazole was pipetted onto separate paper disks. The plates were then incubated at 30° C. for 16 hours. Zones of inhibition were then measured in mm.

Data set [6] concerns the target T1, cytochrome P450 3A4. Nature of the data set: Inhibition of cytochrome P450 3A4 (testosterone 6β-hydroxylase activity).
Experimental: as §3
The next data set concerns S. cerevisae. Nature of the data set: Antifungal MIC, S. cerevisae. Format: cell-based, Saccharomyces cerevisiae. As to conditions: Saccharomyces cerevisiae. The procedure:
[The source words this procedure for another organism and reports this organism under the same test.] as §1

Data set [7] in a line: Hydrolysis of phosphate esters in porcine brain. As to conditions: both free acid and bis(N-methylglucamine) salt. Format: in vitro ADME. As to the method: (§2) The phosphate analogs of the isomers with the largest IC50 /MIC ratios, 1, 2 and 3+4 were further investigated for hydrolysis in plasma and tissues. […] The A% conversion (as determined by HPLC A% analysis) of the phosphate ester to the hydroxy compound was determined in three systems: human plasma, equine pancreas and porcine brain. […] Hydrolysis proceeded to >10% overnight at 37° C. in pancreas and brain, and 3% in human plasma. The hydrolyses of the three phosphates of 1, 2 and 3+4 were also studied in various rat tissues and plasma. In all cases, the jejunum and liver gave the greatest conversion to hydroxyitraconazole, ranging from 20% to 40% for the free acids.

A short description of data set [8]: Hydrolysis of phosphate esters in equine pancreas. As to conditions: both free acid and bis(N-methylglucamine) salt. Format: in vitro ADME. The procedure:
as §2

Data set [9] is described as follows: Hydrolysis of phosphate esters in human plasma. The format is in vitro ADME. As to conditions: both free acid and bis(N-methylglucamine) salt. The procedure:
as §2

The test system of a further data set is synthesis of ergosterol. As to conditions: cited from earlier work.
The conditions of data set [10]: cited from earlier work.
The conditions of data set [11]: cited from earlier work. This is another data set of the same source.
Another data set has as its system fungi and bacteria. As to conditions: cited from earlier work.

pIC50: −log10 of the molar value. In brackets after ≈: the same amount, converted by molar mass. Entries after “also recorded” stand apart in the source; their conditions may differ. Where two headings read alike, the source gives them in different places.

What is called MIC is the smallest concentration in the dilution series that meets the test's criterion for growth inhibition. In general, zone of inhibition refers to the extent of the growth-free halo in a diffusion test. As a reminder, the solubility is how much of the substance goes into solution per volume. For orientation: pIC50 means −log10 of the IC50, conventionally taken in molar units. The low end stands for a high IC50, the high end for a low IC50.

Regarding `C[C@@H](O)[C@H](C)n1ncn(-c2ccc(N3CCN(c4ccc(OC[C@H]5CO[C@](Cn6cncn6)(c6ccc(Cl)cc6Cl)O5)cc4)CC3)cc2)c1=O` [Compound 1], the MIC stood at 1 µg/mL (≈ 1.39 µM) with Candida albicans [1] (C. albicans strain 10231 (Table 3), read-out: Antifungal MIC); 0.25 µg/mL (≈ 0.346 µM) in the data set with Candida albicans [1] (C. albicans strain 28516 (Table 3), read-out: Antifungal MIC); 0.125 µg/mL (≈ 0.173 µM) with Candida albicans [1] (C. albicans strain 28815 (Table 3), read-out: Antifungal MIC); 0.05 µg/mL (≈ 0.0693 µM) in the data set on Candida albicans [1] (C. albicans strain 44203 (Table 3), read-out: Antifungal MIC); 0.5 µg/mL (≈ 0.693 µM) in the data set with Candida albicans [1] (C. albicans strain 44373 (Table 3), read-out: Antifungal MIC); 0.5 µg/mL (≈ 0.693 µM) in the data set with Candida albicans [1] (C. albicans strain 62342 (Table 3), read-out: Antifungal MIC). In addition, the MIC with Candida albicans [1] (Candida albicans strain 44203 (Table 4), read-out: MIC) was 0.05 µg/mL (≈ 0.0693 µM); with A. fumigatis, 0.137 µg/mL (≈ 0.19 µM); against Cr. neoformens (Cr. neoformens (Table 3)), 0.39 µg/mL (≈ 0.54 µM); in the data set on S. cerevisae (S. cerevisae (Table 3)), 0.195 µg/mL (≈ 0.27 µM). For the same compound, the zone of inhibition at 10000 µg/mL in the data set with Candida albicans [2] amounted to 22 mm; in the data set on Sacchromyces cerevisae, 22 mm; with Aspergillis, 27 mm; in the data set with Cryptococcus neoformens, 28 mm. Besides, the solubility worked out at 0.051 µg/mL in [3]; 0.051 µg/mL (≈ 0.0707 µM) in data set [4] (water, LOD: 5000 μV*sec, order-of-magnitude accuracy below LOD, 3+4 and 11+12 ±10%). This compound gave an Area in data set [4] (λmax = 260 nm, LOD 5000 μV*sec) of 1499 μV*sec. The “Inhibition of P450 3A4 in words” value on cytochrome P450 3A4 [5] is “notably less inhibition of the P450 3A4 enzyme than the 2S,4R isomers”. The pIC50 on cytochrome P450 3A4 [6] was 5.55. Moreover, the selectivity ratio at cytochrome P450 3A4 [6] is 56. Besides, on cytochrome P450 3A4 [6] (therapeutic index, 3A4 vs C. albicans 44203), the “IC50/MIC ratio in words” value is given as “excellent results”.

With `C[C@H](OP(=O)(O)O)[C@@H](C)n1ncn(-c2ccc(N3CCN(c4ccc(OC[C@H]5CO[C@](Cn6cncn6)(c6ccc(Cl)cc6Cl)O5)cc4)CC3)cc2)c1=O` [Compound 2-phosphate], the MIC was 12.5 µg/mL (≈ 15.6 µM) in the data set with Candida albicans [1] (C. albicans (Table 7, esters), read-out: Antifungal MIC); 12.5 µg/mL (≈ 15.6 µM) in the data set with Cr. neoformens (Cr. neoformens (Table 7, esters)); 12.5 µg/mL (≈ 15.6 µM) in the data set with S. cerevisae (S. cerevisae (Table 7, esters)). Besides, the “Ease of hydrolysis of phosphate ester” value in [7], in data set [8] and in data set [9] was “most readily hydrolyzed compound in all three systems” in each case.

For the compound `CCC(C)n1ncn(-c2ccc(N3CCN(c4ccc(OC[C@H]5CO[C@](Cn6cncn6)(c6ccc(Cl)cc6Cl)O5)cc4)CC3)cc2)c1=O` (relative stereo) [itraconazole, 4-[4-[4-[4-[[2-(2,4-dichlorophenyl)-2-(1H-1,2,4-triazol-1-ylmethyl)-1,3-dioxolan-4-yl]methoxy]phenyl]-1-piperazinyl]phenyl]-2,4-dihydro-2-(1-methylpropyl)-3H-1,2,4-triazol-3-one], inhibition of growth against Candida albicans [1] (MIC) required 0.06 µg/mL (≈ 0.085 µM). For the same compound, the zone of inhibition at 10000 µg/mL in the data set on Sacchromyces cerevisae was 15 mm. In addition, in [4] (LOD: 5000 μV*sec, order-of-magnitude accuracy below LOD, 3+4 and 11+12 ±10%, listed as Itraconazole), the Water solubility result is recorded as “such low water solubility that it could not be determined by this method”. For the same compound, the Water solubility entry in data set [4] (LOD: 5000 μV*sec, order-of-magnitude accuracy below LOD, 3+4 and 11+12 ±10%, listed as ±Itraconazole) is “not detected”. For the same compound, the “Effect on synthesis of ergosterol” value in the data set on synthesis of ergosterol is reported as “impairs the synthesis of ergosterol”. In data set [10] (in most subjects), the “Urinary excretion of metabolites” value was “no metabolites are excreted in the urine”. In data set [10] (oral), the “Absorption following oral administration” value is “slowly absorbed” and the Pharmacokinetic behavior entry is “nonlinear”. In addition, the Adverse effects entry in data set [11] (administration of itraconazole) was “hepatotoxicity and inhibition of drug metabolism in the liver; also recorded: Hypersensitivity reactions including urticaria and elevations in serum liver enzymes”. Moreover, in data set [11] (racemic itraconazole concurrently with terfenadine), the “Torsades de Pointes” value was “Torsades de Pointes, has been reported”. Besides, in the data set with fungi and bacteria (Sabouraud broth containing 10% inactivated bovine serum), the “Effect of serum on antifungal activity” value is “enhanced in vitro”. The Inhibition of growth entry with fungi and bacteria (Sabouraud broth, 14 days, Microsporum canis, Trichophyton mentagrophytes, Candida albicans, Aspergillus spp. and others) is reported as “Complete or marked inhibition of growth”.

Values taken from patent US6147077A, “2R,4S-hydroxyitraconazole isomers” (priority 1999, dated 2000).
